# “Also recorded” adds a separate entry of the source.
# How the values were obtained:
# [1] = system: aA-crystallin-Y118D and aB-crystallin-R120G; assay: Dissolving of accumulated crystal protein in cells carrying two crystallin mutant plasmids; type: cell-based; settings: 10 uM, compared with 1% DMSO solution
# Method: FIG. 13. Two mutant crystal proteins were introduced into cells. The accumulated crystal protein were treated by adding different agents.
# Cyclopentanoperhy drophenanthrene compounds of the present invention refers to a compound containing cyclopentanoperhy drophenanthrene skeleton structure, including its derivatives. After the two crystal protein mutant plasmid aA-crystallin-Y118D and aB-crystallin-R120G were introduced into cells, we investigated the lanosterol and its derivatives as well as cholesterol (Cholesterol) for their effects on intracellular accumulation of crystal protein. Not all cyclopentanoperhy drophenanthrene compound have the same effect.
# [2] = biological target: T1, αB-crystallin R120G mutant (Homo sapiens, UniProt P02511, R120G); assay: Negative-stain EM of aggregates treated with sterol in liposome; type: biochemical; settings: negatively stained EM
# T1 construct: made in house
# T1 sequence (P02511 1-175 R120G): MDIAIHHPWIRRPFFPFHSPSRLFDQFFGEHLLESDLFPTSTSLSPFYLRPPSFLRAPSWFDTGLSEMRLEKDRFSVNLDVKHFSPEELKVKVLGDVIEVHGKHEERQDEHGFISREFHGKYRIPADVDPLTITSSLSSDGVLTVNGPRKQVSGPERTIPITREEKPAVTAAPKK
# Method: Representative negatively stained EM pictures of the aggregates of αB-crystallin R120G mutant treated by liposome, lanosterol in liposome and cholesterol in liposome, respectively. The EM samples were stained by 1.25% uranyl acetate.
# Quantitative analysis was performed by calculating the number of particles with length over 50 nm from six randomly picked viewing field. Each viewing field contained 30-50 particles.
# The aggregates of the WT and mutated αA- and αB-crystallin proteins were obtained by heating the proteins solutions containing 1 M guanidine chloride (ultrapure, Sigma) with a concentration of 5 mg/ml at 60° C. for 48 h. The aggregates of the WT and mutated β- and γ-crystallins were prepared by heating the protein solutions at pH 3 and 37° C. for 48 h. The formation of aggregates was confirmed by turbidity (absorbance at 400 nm) and transmission electron microscope (EM) measurements. The preformed aggregates were resuspended in 20 mM PBS with a final concentration of 0.1 mg/ml (approximately 5 μM). The resuspended aggregates were treated by 50 μM lanosterol or cholesterol in liposomes formed by 50 μM DPPS at 37° C. […] The soluble proteins were determined by centrifuge the protein solutions to separate the supernatant and precipitation fractions. Then the protein concentration in the supernatant was determined by the Bradford method. […]
# [3] = system: aggregates of various WT and mutated crystallins; assay: In vitro protein assay: dissociation of preformed crystallin aggregates (turbidity, soluble protein, EM); type: biochemical; settings: 37° C.
# Method: Evaluation of the effect of lanosterol on the dissolution of crystallin aggregates by turbidity. Crystallin aggregates were formed by incubating 5mgml21 protein solution at 60° C. for 2 h (α-crystallins) or 37° C. for 48 h (β- and γ-crystallins) in the presence of 1M guanidine chloride. The preformed aggregates were re-suspended in PBS at a final protein concentration of 0.2 mg/ml and were treated with 500 μM sterols in 500 μM DPPC liposome and incubated at 37° C. for 24 h. Aggregates treated with 500 μM DPPC liposome only were used as the controls.
# The α-crystallin aggregates were formed by incubating 5 mg/ml protein solutions at 60° C. for 48 h in the presence of 1 M guanidine chloride. The β- and γ-crystallin aggregates were prepared by incubating the protein solutions at 37° C. and pH 3 for 48 h. The preformed aggregates were re-suspended in PBS with a final protein concentration of 0.1 mg/ml. The re-suspended aggregates were treated by 50 μM sterols in 50 μM DPPS liposome and incubated at 37° C. for 144 h. The aggregates treated by 50 μM DPPS liposome were used as the controls. The supernatant and precipitation fractions were separated by centrifugation. The protein concentrations in the supernatant fraction were determined by absorbance at 280 nm and the percentages of the soluble proteins were calculated from three independent repetitions.
# The recombinant his-tagged WT and mutated β- and γ-crystallin proteins were overexpressed in E. coli Rosetta and purified by Ni-NTA affinity column followed by gel filtration chromatography using the same protocol as those described elsewhere 13,14,16,18. The overexpression and purification of the non-tagged αA- and αB-crystallins were performed as described previously 19. The purity of the proteins were estimated to be above 95% as evaluated by one homogeneous band on 12.5% SDS-PAGE, 10% native-PAGE and a single peak in the size-exclusion chromatographyprofile. The protein concentration was determined according to the Bradford method by using BSA as the standard 20. All protein samples were prepared in 20 mM PBS buffer containing 150 mM NaCl, 1 mM EDTA and 1 mM DTT.
# The aggregates of the WT and mutated αA- and αB-crystallin proteins were obtained by heating the proteins solutions containing 1 M guanidine chloride (ultrapure, Sigma) with a concentration of 5 mg/ml at 60° C. for 48 h. The aggregates of the WT and mutated β- and γ-crystallins were prepared by heating the protein solutions at pH 3 and 37° C. for 48 h. The formation of aggregates was confirmed by turbidity (absorbance at 400 nm) and transmission electron microscope (EM) measurements. The preformed aggregates were resuspended in 20 mM PBS with a final concentration of 0.1 mg/ml (approximately 5 μM). The resuspended aggregates were treated by 50 μM lanosterol or cholesterol in liposomes formed by 50 μM DPPS at 37° C. After 72 h treatment, the protein solutions were used for negative-stained EM observations. After 144 h incubation, the protein solutions were used for turbidity measurements and determinations of protein concentrations in the soluble fractions. The soluble proteins were determined by centrifuge the protein solutions to separate the supernatant and precipitation fractions. Then the protein concentration in the supernatant was determined by the Bradford method. The EM samples were prepared by depositing the protein solutions onto a freshly glow-discharged carbon coated copper grid. […]
# [4] = system: various cataract-causing crystallin mutants; assay: Aggresome / intracellular aggregate formation of crystallin mutants in transfected cells (confocal microscopy); type: cell-based; settings: 0-40 μM sterols in 2% DMSO, 2 h treatment then 12 h culture; lanosterol effect dose-dependent
# Method: The effect of lanosterol or cholesterol on the aggresome formation of various crystallins was studied by transfecting the cells using plasmids containing various crystallin genes. The cells were cultivated for 24 h to enable efficient protein expression and aggresome formation. Then the cells were treated with 0-40 μM sterols in 2% DMSO. The cells treated with 2% DMSO were used as the control. After treatment for 2 h, the cells were moved to fresh DMEM medium containing 10% fetal bovine serum and further cultivated for 12 h. Then the cells were used for microscopy analysis.
# The microscopy samples were prepared by washing the slips by phosphate buffered saline (PBS) three times. The cells were fixed with 4% paraformaldehyde for 40 min followed by three times washing with PBS. The cells were permeabilized with 0.1% Triton X-100 (Sigma) in PBS for 10 min and blocked with 5% normal goat serum in PBS for 1 h at 37° C. Immunostaining was carried out by adding mouse anti-Flag antibody (1:500) or anti-p62 antibody (1:200) in PBS buffer containing 5% normal goat serum and cultivated for 1 h at 37° C. Then the slips were washed three times with PBS, and further incubated with Alexa 649-conjugated goat anti-mouse IgG (1:250) for 1 h at ambient temperature. The nuclei were counterstained with Hoechst 33342. The mounted cells were analyzed using a Carl Zeiss LSM 710 confocal microscope.
compound,measurement,setting,value
CC(C)CCC[C@@H](C)[C@H]1CC[C@H]2C3=CC[C@H]4C[C@@H](O)CC[C@]4(C)[C@H]3CC[C@]12C [5α-cholest-7-en-3β-ol],dissolving of accumulated crystal protein,[1],significant dissolving of the accumulated crystal protein
same,dissolving of accumulated crystal protein,[1]; listed as 5a-cholest-7-en-3β-ol,significantly dissolve accumulated crystals protein
"CC(C)CCC[C@@H](C)[C@H]1CC[C@H]2[C@@H]3CC=C4C[C@@H](O)CC[C@]4(C)[C@H]3CC[C@]12C [Cholesterol, reference compound]",dissociation of aggregates formed by αB-crystallin R120G mutant (number of particles with length over 50 nm),[2],not
same,dissolution of crystallin aggregates by turbidity,"[3]; 500 μM sterols in 500 μM DPPC liposome, 24 h, 0.2 mg/ml protein",could not
same,dissociation of aggregates of various WT and mutated crystallins,"[3]; in vitro protein assay, 50 μM sterol in 50 μM DPPS liposome",could not and not
same,intracellular aggregation of various cataract-causing crystallin mutants,[4],did not affect the formation of intracellular aggregates
same,dissolving of accumulated crystal protein,[1],cannot effectively dissolve
CC(C)=CCC[C@@H](C)[C@H]1CC[C@@]2(C)[C@@H]3CC[C@H]4C(C)(C)[C@@H](O)CC[C@]4(C)C3=CC[C@]12C [Parkeol],dissolving of accumulated crystal protein,[1],significant dissolving of the accumulated crystal protein
same,dissolving of accumulated crystal protein,[1]; listed as parkeol,significantly dissolve accumulated crystals protein
"CC(C)=CCC[C@@H](C)[C@H]1CC[C@H]2C3=C(CC[C@]12C)[C@@]1(C)CC[C@H](O)C[C@@H]1CC3 [Zymosterol, 5α-Cholesta-8,24-dien-3β-ol]",dissolving of accumulated crystal protein,[1],significant dissolving of the accumulated crystal protein
same,dissolving of accumulated crystal protein,[1]; listed as zymosterol,significantly dissolve accumulated crystals protein
CC(C)[C@@H](C)/C=C/[C@@H](C)[C@H]1CC[C@H]2C3=CC=C4C[C@@H](O)CC[C@]4(C)[C@H]3CC[C@]12C [ergosterol],dissolving of accumulated crystal protein,[1],significantly dissolve accumulated crystals protein; also recorded: significant dissolving of the accumulated crystal protein
CC(C)CCC[C@@H](C)[C@H]1CC[C@H]2[C@@H]3CC[C@H]4C[C@@H](O)CC[C@]4(C)[C@H]3CC[C@]12C [β-cholestanol],dissolving of accumulated crystal protein,[1],significantly dissolve accumulated crystals protein; also recorded: significant dissolving of the accumulated crystal protein
